Laboratory results: patent US8236818B2, “Substituted imidazopyridine derivatives as melanocortin-4 receptor antagonists” (Santhera Pharmaceuticals (Schweiz) AG, priority 2007, dated 2012)

What was measured:
melanocortin-4 receptor [1] = biological target: T1, melanocortin-4 receptor (Homo sapiens, UniProt P32245); assay: Membrane binding assay (fluorescence polarization, competition with fluorescence labeled NDP-alpha-MSH); conditions: read-out: hMC-4R binding assay IC50/μM
T1 construct: expressed in transfected cells; host or cells: HEK293 cells (membrane preparations)
T1 sequence (P32245 whole entry): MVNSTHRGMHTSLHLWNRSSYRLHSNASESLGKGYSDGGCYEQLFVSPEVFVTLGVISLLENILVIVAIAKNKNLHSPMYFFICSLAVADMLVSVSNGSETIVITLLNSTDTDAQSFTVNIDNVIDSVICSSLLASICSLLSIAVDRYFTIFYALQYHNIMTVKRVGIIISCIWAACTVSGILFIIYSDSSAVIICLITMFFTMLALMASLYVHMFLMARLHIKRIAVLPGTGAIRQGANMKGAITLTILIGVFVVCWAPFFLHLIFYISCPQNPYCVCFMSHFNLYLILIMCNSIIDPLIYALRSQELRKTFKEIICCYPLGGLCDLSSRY

melanocortin-4 receptor [2] = biological target: T1, melanocortin-4 receptor; assay: Functional assay (cAMP fluorescence polarization, membrane based, agonistic activity); format: biochemical; conditions: for Emax: 2 h, read-out: % activation functional assay; for EC50: agonistic activity, cAMP, HEK293 membrane preparations, read-out: hMC-4R functional assay EC50/μM

| SMILES | IC50 (melanocortin-4 receptor [1]) [µM] | Emax (melanocortin-4 receptor [2]) [%] | EC50 (melanocortin-4 receptor [2]) [µM] |
| --- | --- | --- | --- |
| CC(C)CCN(CCC(C)C)C(=O)c1ccc2nc(-c3ccc(OCCCO)nc3)c(CCCN3CCCC3)n2c1 [Example 92] | 0.1 to 1 | -31 | < 0.1 |
| CC(C)CCN(CCC(C)C)C(=O)c1ccc2nc(-c3ccc(=O)[nH]c3)c(CCCN3CCCC3C)n2c1 (stereo not shown) [Example 100] | < 0.1 | -22 |  |
| COc1cccc(-c2nc3ccc(C(=O)N(CCC(C)C)CCC(C)C)cn3c2CN2CCC(N)C2)c1 (stereo not shown) [Example 123] | > 1 | 0 |  |
| CC(C)CCN(CCC(C)C)C(=O)c1ccc2nc(-c3ccncc3)c(CCCN3CCCC3)n2c1 [Example 56] | < 0.1 | 0 |  |
| CC(C)CCN(CCC(C)C)C(=O)c1ccc2nc(-c3ccc(OCCO)nc3)c(CCCN3CCCC3)n2c1 [Example 79] | < 0.1 | 11 |  |
| COc1ccc(-c2nc3ccc(C(=O)N(CCC(C)C)CCC(C)C)cn3c2CCCN)cc1 [Example 3] | 0.1 to 1 | 0 |  |
| CC(C)CCN(CCC(C)C)C(=O)c1ccc2nc(-c3ccc(=O)n(CCO)c3)c(CCCN3CCCC3)n2c1 [Example 81] | < 0.1 | -9 |  |
| CC1CCCN1CCCc1c(-c2ccc(=O)n(CCO)c2)nc2ccc(C(=O)N(CCC3CC3)CCC3CC3)cn12 (stereo not shown) [Example 111] | 0.1 to 1 | -25 |  |
| CC(=O)OCCn1cc(-c2nc3ccc(C(=O)N(CCC(C)C)CCC(C)C)cn3c2CCCN2CCCC2)ccc1=O [Example 99] | < 0.1 | 4 |  |
| CC(C)CCN(CCC(C)C)C(=O)c1ccc2nc(-c3ncco3)c(CCCN3CCC[C@H]3C)n2c1 [Example 86] | < 0.1 | -11 |  |
| CC(C)CCN(CCC(C)C)C(=O)c1ccc2nc(-c3ccc(S(C)(=O)=O)cc3)c(CCCN3CCCC3)n2c1 [Example 35] | < 0.1 | 0 |  |
| CC(C)CCN(CCC(C)C)C(=O)c1ccc2nc(-c3cc[nH]c(=O)c3)c(CCCN(C)C)n2c1 [Example 88] | 0.1 to 1 | -2 |  |
| CC(=O)OCCOc1ccc(-c2nc3ccc(C(=O)N(CCC(C)C)CCC(C)C)cn3c2CCCN2CCCC2)cn1 [Example 97] | < 0.1 | 1 |  |
| CC(C)CCN(CCC(C)C)C(=O)c1ccc2nc(-c3ccc(Cl)cc3)c(CCCCN(C)C)n2c1 [Example 24] | > 1 | 0 |  |
| CC(C)CCN(CCC(C)C)C(=O)c1ccc2nc(-c3ncco3)c(CCCN(C)C)n2c1 [Example 52] | 0.1 to 1 | 0 |  |
| CC(=O)OCCOc1ccc(-c2nc3ccc(C(=O)N(CCC4CC4)CCC4CC4)cn3c2CCCN2CCCC2)cn1 [Example 106] | 0.1 to 1 | 0 |  |
| CC(C)CCN(CC(C)C)C(=O)c1ccc2nc(-c3ccc(C#N)cc3)c(CN3CCC(N)CC3)n2c1 [Example 150] | 0.1 to 1 | 0 |  |
| COc1ccc(-c2nc3ccc(C(=O)N(CCC(C)C)CCC(C)C)cn3c2CCCN2CCCC2)cc1 [Example 6] | < 0.1 | 0 |  |
| CC(C)CCN(CCC(C)C)C(=O)c1ccc2nc(-c3ccc(F)cc3)c(CN3CCC(N)CC3)n2c1 [Example 118] | 0.1 to 1 | 0 |  |
| COc1ccc(-c2nc3ccc(C(=O)N(CCC(C)C)CCC(C)C)cn3c2CN2CCC(N(C)C)CC2)c(OC)c1 [Example 129] | > 1 | 0 |  |
| CC(C)CCN(CCC(C)C)C(=O)c1ccc2nc(-c3ccc(N)nc3)c(CCCN3CCCC3)n2c1 [Example 65] | < 0.1 | 0 |  |
| CC(C)CCN(CCC(C)C)C(=O)c1ccc2nc(-c3ccc(C#N)cc3)c(CCCN(C)C)n2c1 [Example 18] | 0.1 to 1 | 0 |  |
| CC(C)CCN(CCC(C)C)C(=O)c1ccc2nc(-c3ncco3)c(CCCN3CCCC3C)n2c1 (stereo not shown) [Example 69] | < 0.1 | 0 |  |
| CC(C)CCN(CCC(C)C)C(=O)c1ccc2nc(-c3cccc(Cl)c3)c(CN3CCC(N)CC3)n2c1 [Example 120] | > 1 | 0 |  |
| COc1ccc(OC)c(-c2nc3ccc(C(=O)N(CCC(C)C)CCC(C)C)cn3c2CN2CCC(N(C)C)CC2)c1 [Example 130] | > 1 | 0 |  |
| COCCOc1ccc(-c2nc3ccc(C(=O)N(CCC(C)C)CCC(C)C)cn3c2CCCN2CCCC2)cn1 [Example 96] | < 0.1 | 0 |  |
| COc1cccc(-c2nc3ccc(C(=O)N(CCC(C)C)CCC(C)C)cn3c2CN2CCNCC2)c1 [Example 121] | > 1 | 0 |  |
| CC(C)CCN(CCC(C)C)C(=O)c1ccc2nc(-c3ccc(Cl)cc3)c(CCCN3CCCC3)n2c1 [Example 19] | < 0.1 | 0 |  |
| CC(C)CCN(CCC(C)C)C(=O)c1ccc2nc(-c3ccc4c(c3)CCC(=O)N4)c(CN3CCC(N)CC3)n2c1 [Example 136] | 0.1 to 1 | 0 |  |
| CC(C)CCN(CCC(C)C)C(=O)c1ccc2nc(-c3ncco3)c(CCCN(C)C(C)C)n2c1 [Example 75] | < 0.1 | 1 |  |

Second part, the molecule after the results:

| IC50 (melanocortin-4 receptor [1]) [µM] | Emax (melanocortin-4 receptor [2]) [%] | EC50 (melanocortin-4 receptor [2]) [µM] | SMILES |
| --- | --- | --- | --- |
| < 0.1 | 0 |  | CC(C)CCN(CCC(C)C)C(=O)c1ccc2nc(-c3ccc4c(c3)OCCO4)c(CCCN3CCCCC3)n2c1 [Example 2] |
| 0.1 to 1 | 0 |  | CC(C)CCN(CCC(C)C)C(=O)c1ccc2nc(-c3ncco3)c(CCCN3CC[C@@H](O)C3)n2c1 [Example 71] |
| 0.1 to 1 | 0 |  | COc1cccc(-c2nc3ccc(C(=O)N(CCC(C)C)CCC(C)C)cn3c2CN2CCC(N(C)C)CC2)c1 [Example 114] |
| < 0.1 | 0 |  | CCN(C)CCCc1c(-c2cccc(OC)c2)nc2ccc(C(=O)N(CCC(C)C)CCC(C)C)cn12 [Example 29] |
| 0.1 to 1 | 0 |  | CCCN(CC1CC1)C(=O)c1ccc2nc(-c3ccc(C#N)cc3)c(CCCN3CCCC3)n2c1 [Example 141] |
| 0.1 to 1 | 0 |  | CC(C)CCN(CCC(C)C)C(=O)c1ccc2nc(-c3ccc(Cl)cc3)c(CN3C[C@H]4CNC[C@H]4C3)n2c1 [Example 127] |
| 0.1 to 1 | -18 | < 0.1 | CC(C)CCN(CCC(C)C)C(=O)c1ccc2nc(-c3ccc(Cl)cc3)c(CCCN(C)C)n2c1 [Example 20] |
| > 1 | 0 |  | CC(C)CCN(CCC(C)C)C(=O)c1ccc2nc(-c3nccs3)c(CN3CCC(N)CC3)n2c1 [Example 135] |
| 0.1 to 1 | 0 |  | CCN(C)CCCCc1c(-c2ccc(Cl)cc2)nc2ccc(C(=O)N(CCC(C)C)CCC(C)C)cn12 [Example 23] |
| 0.1 to 1 | 0 |  | CC(C)CCN(CCC(C)C)C(=O)c1ccc2nc(-c3ccc(Cl)nc3)c(CCCN(C)C)n2c1 [Example 66] |
| < 0.1 | -18 | < 0.1 | COc1cccc(-c2nc3ccc(C(=O)N(CCC(C)C)CCC(C)C)cn3c2CCCN2CC[C@@H](O)C2)c1 [Example 34] |
| 0.1 to 1 | 0 |  | CC(C)CCN(CCC(C)C)C(=O)c1ccc2nc(-c3ccc(-c4ccccn4)s3)c(CN3CCC(N)CC3)n2c1 [Example 124] |
| 0.1 to 1 | -23 |  | CC(=O)OCCn1cc(-c2nc3ccc(C(=O)N(CCC4CC4)CCC4CC4)cn3c2CCCN2CCCC2C)ccc1=O (stereo not shown) [Example 110] |
| 0.1 to 1 | -12 |  | O=C(c1ccc2nc(-c3ccc(=O)[nH]c3)c(CCCN3CCCC3)n2c1)N(CCC1CC1)CCC1CC1 [Example 148] |
| > 1 | 0 |  | C#CCN(C)CCCc1c(-c2cccc(OC)c2)nc2ccc(C(=O)N(CCC(C)C)CCC(C)C)cn12 [Example 38] |
| > 1 | 0 |  | CC(C)CCN(CCC(C)C)C(=O)c1ccc2nc(-c3ccc(Cl)cc3)c(CN3CCN4CCCC4C3)n2c1 (stereo not shown) [Example 128] |
| < 0.1 | 0 |  | COc1cccc(-c2nc3ccc(C(=O)N(CCC(C)C)CCC(C)C)cn3c2CCCN2CC[C@H](F)C2)c1 [Example 14] |
| > 1 | 0 |  | CC(C)CCN(CCC(C)C)C(=O)c1ccc2nc(-c3ccc(C#N)cc3)c(CCN3CCN(C)CC3)n2c1 [Example 27] |
| < 0.1 | -1 |  | COc1ccc(-c2nc3ccc(C(=O)N(CCC(C)C)CCC(C)C)cn3c2CCCN(C)C)cn1 [Example 83] |
| > 1 | 0 |  | CC(C)CCN(CCC(C)C)C(=O)c1ccc2nc(-c3ccc(Cl)cc3)c(CN3CCCC(N)C3)n2c1 (stereo not shown) [Example 126] |
| 0.1 to 1 | 0 |  | COc1cccc(-c2nc3ccc(C(=O)N(CCC(C)C)CCC(C)C)cn3c2CCCNC(C)C)c1 [Example 7] |
| < 0.1 | 0 |  | CC(C)CCN(CCC(C)C)C(=O)c1ccc2nc(-c3cc(O)ccn3)c(CCCN3CCCC3)n2c1 [Example 44] |
| < 0.1 | 0 |  | CC(C)CCN(CCC(C)C)C(=O)c1ccc2nc(-c3ccc(N(C)C)nc3)c(CCCN(C)C)n2c1 [Example 51] |
| < 0.1 | 0 |  | CC(C)CCN(CCC(C)C)C(=O)c1ccc2nc(-c3ccc(Cl)nc3)c(CCCN3CCCC3)n2c1 [Example 67] |
| < 0.1 | 0 |  | COc1cccc(-c2nc3ccc(C(=O)N(CCC(C)C)CCC(C)C)cn3c2CCCN2CCC2)c1 [Example 11] |
| < 0.1 | 2 |  | CC(C)CCN(CCC(C)C)C(=O)c1ccc2nc(-c3ncco3)c(CCCN3CC[C@H](F)C3)n2c1 [Example 78] |
| > 1 | 0 |  | CC(C)CCN(CCC(C)C)C(=O)c1ccc2nc(-c3cccnc3N)c(CCCN(C)C)n2c1 [Example 87] |
| < 0.1 | 0 |  | COCCn1cc(-c2nc3ccc(C(=O)N(CCC(C)C)CCC(C)C)cn3c2CCCN2CCCC2)ccc1=O [Example 95] |
| < 0.1 | -25 | < 0.1 | CC(C)CCN(CCC(C)C)C(=O)c1ccc2nc(-c3cc[nH]c(=O)c3)c(CCCN3CCCC3)n2c1 [Example 89] |
| 0.1 to 1 | 0 |  | COc1cccc(-c2nc3ccc(C(=O)N(CCC(C)C)CCC(C)C)cn3c2CN2CCC(N)CC2)c1 [Example 116] |
